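How tested: cells in 96-well plates exposed to compound for 48 hours at five concentrations. Definition used: TGI = concentration required for complete inhibition of growth.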
Experiments:
Assay in all cases: inhibition of tumour cell growth, NCI panel, 48 h
[1] = system: SW-620 colon
[2] = system: A498 renal
[3] = system: OVCAR-8 ovarian
[4] = system: LOX IMVI melanoma
[5] = system: BT-549 breast
[6] = system: RXF 393 renal
[7] = system: SF-539 CNS
[8] = system: UACC-257 melanoma
[9] = system: MDA-N
[10] = system: HL-60(TB) leukemia
[11] = system: OVCAR-3 ovarian
[12] = system: UACC-62 melanoma
[13] = system: K-562 leukemia
[14] = system: OVCAR-5 ovarian

| Structure (SMILES) | TGI [1] | TGI [2] | TGI [3] | TGI [4] | TGI [5] | TGI [6] | TGI [7] | TGI [8] | TGI [9] | TGI [10] | TGI [11] | TGI [12] | TGI [13] | TGI [14] |
| --- | --- | --- | --- | --- | --- | --- | --- | --- | --- | --- | --- | --- | --- | --- |
| COc1ccccc1Cc1ccc(C2C=CC3(CC(=O)C=C3C)C(=O)C2)o1 (configuration not stated) | 40.7 µM | 47.7 µM | 37.1 µM | 34.9 µM | 58.7 µM | 56.3 µM | 42.9 µM | 68.9 µM | 44.2 µM | 41.7 µM | 23.5 µM | 31.8 µM | 50.1 µM | > 100 µM |
| CCCCCCCCCCCC(=O)OC[C@H](C[As](=O)(O)O)OC(=O)CCCCCCCCCCC | 27.4 µM | 17.1 µM | 27.8 µM | 23.6 µM | 11.3 µM | 5.68 µM | 38.6 µM | 24.9 µM | 14.8 µM | > 28.6 µM | 19.3 µM | 6.98 µM | > 52.5 µM | 32.7 µM |
| NNC(=O)CC(=O)Nc1cccc(Cl)c1 | > 100 µM | > 100 µM | > 100 µM | > 100 µM | > 100 µM | > 100 µM | > 100 µM | > 100 µM | > 100 µM | > 100 µM | > 100 µM | > 100 µM | > 100 µM | > 100 µM |
| N#CC1(C#N)NC(c2ccccc2)C(C#N)(C#N)NC1c1ccccc1 (configuration not stated) | > 100 µM | > 100 µM | > 100 µM | > 100 µM | > 100 µM | > 100 µM | > 100 µM | > 100 µM | > 100 µM | > 100 µM | > 100 µM | > 100 µM | > 100 µM | > 100 µM |
| COC(=O)/C=C\C(C#N)(C#N)N=Cc1cccc(OC)c1 | 5.68 µM | 34.7 µM | 10.5 µM | > 50.8 µM | 20.4 µM | 9.62 µM | 7.83 µM | 29.8 µM | 17.2 µM | > 100 µM | 26.1 µM | 31.8 µM | > 100 µM | 20.1 µM |
| CC(=O)Nc1ccc2nc(-c3ccccn3)c(-c3ccccn3)nc2c1 | > 100 µM | > 100 µM | > 100 µM | > 100 µM | > 100 µM | > 100 µM | > 100 µM | > 100 µM | > 100 µM | > 100 µM | > 100 µM | > 100 µM | > 100 µM | > 100 µM |
| COc1cc(-c2nc3ccc(N4CCN(C)CC4)cc3[nH]2)c(OC)c2[nH]c(COC(C)=O)nc12 | > 100 µM | > 100 µM | > 100 µM | 96.4 µM | > 100 µM | 59.4 µM | > 100 µM | > 100 µM | > 100 µM | > 100 µM | > 100 µM | > 100 µM | > 100 µM | > 100 µM |
| O=C(Cc1ccccc1F)NC1=C(Cl)C(=O)c2ccccc2C1=O | 3.81 µM | 33.4 µM | 9.36 µM | 5.99 µM | 7.26 µM | 0.816 µM | 1.93 µM | 4.32 µM | 11.8 µM | 0.8 µM | 2.9 µM | 1.92 µM | > 41.8 µM | 21.2 µM |

Reference: PubChem BioAssay (NCI)
